Measured values published in article PMC10518255, “A first-in-class pan-lysyl oxidase inhibitor impairs stromal remodeling and enhances gemcitabine response and survival in pancreatic cancer” (Nature Cancer, 2023).
Values joined by “and” are separate entries in the source; they are usually repeats but may differ in a detail not shown here. Equal entries are not always repeated.

Legend:
[1] = system: KPC CCs; assay: 3D cell viability assay (MTS, collagen); type: cell-based, mouse; conditions: for 3D cell viability (MTS assay): KPC CC, replicates
Description: (§1) The 3D cell viability assays were performed using cells embedded into polymerized collagen at 2.5 mg ml^−1. KPC CAFs and CCs were seeded at 10,000 cells per well in a 96-well plate. MTS solution (Promega) was added to the cells at a 1:20 dilution and cells were incubated at 37 °C for 1.5 h. Cell proliferation rates were measured by detecting the absorbance at 490 nm using a microplate reader and three biological repeats were performed.
(§2) Data presented as mean values +/− SD. f. […] Data presented as mean values +/− SD. […] Data presented as mean values +/− SD. […] Data presented as mean values +/− SD. Ordinary one-way ANOVA for multiple comparison test performed. Source data

[2] = system: KPC CAFs; assay: 3D cell viability assay (MTS, collagen); type: cell-based, mouse; conditions: for 3D cell viability (MTS assay): replicates
Description: as §1, §2

[3] = 3D cell viability assay (MTS, collagen); type: cell-based, mouse; conditions: mouse, replicates
Description: as §1, §2

[4] = system: LOX; assay: Time-dependent inhibition with pre-incubation 0-240 min (Fig. 2d); type: biochemical
Text: Data are presented as mean ± s.d. […] Data presented as mean ± s.d. […] Source data TEXT PRINTED IN THE PICTURE: (b) PXS-5505: Recombinant DAO IC50 (nM): >30,000; Recombinant SSAO/VAP1 IC50 (nM): >30,000; Recombinant MAO-A IC50 (nM): >30,000; Recombinant MAO-B IC50 (nM): >30,000 | (f) PXS-5505: Fibroblast LOX IC50 (nM): 4,930; Recombinant LOXL-1 IC50 (nM): 1,590; Recombinant LOXL-2 IC50 (nM): 570; Recombinant LOXL-3 IC50 (nM): 1,800; Recombinant LOXL-4 IC50 (nM): 190
Similar to other fluoroallylamine-based amine oxidase inhibitors, the mode of inhibition is assumed to be a two-step mechanism (Fig. 2c), with PXS-5505 reacting with the unique LTQ cofactor found within the active site. The fluoroallylamine facilitates the formation of a covalent, irreversible bond. […] Furthermore, in jump dilution experiments, there is no significant recovery of activity following rapid dilution (LOXL1 (5 ± 5% recovery, n = 4), LOXL2 (7 ± 1.2% recovery, n = 3) and LOXL3 (11 ± 2% recovery, n = 3)).

With Cl.Cl.NC/C=C(\F)CS(=O)(=O)c1cccc2cccnc12.O [PXS-5505, (Z)-3-fluoro-4-(quinolin-8-ylsulfonyl)but-2-en-1-amine dihydrochloride monohydrate] the “3D cell viability (MTS assay)” value ([1]; PXS-5505 0.3 (unit not given)) was 101.864 and 94.0126, the “3D cell viability (MTS assay)” value ([1]; PXS-5505 3 (unit not given)) was 104.713 and 92.4708 and the “3D cell viability (MTS assay)” value ([1]; PXS-5505 30 (unit not given)) was 96.3592 and 91.3434. The “3D cell viability (MTS assay)” value ([1]; PXS-5505 100 (unit not given)) was 92.997 and 88.536, the “3D cell viability (MTS assay)” value ([1]; PXS-5505 300 (unit not given)) was 102.736 and 92.2188 and 80.3582 and the “effect on proliferation, 3D” value ([1]; KPC CCs, up to 300 µM) was “nor did it show any effect on proliferation”. The “3D cell viability (MTS assay)” value ([2]; PXS-5505 0.3 (unit not given)) was 102.654 and 114.604 and 89.88, the “3D cell viability (MTS assay)” value ([2]; PXS-5505 3 (unit not given)) was 96.8872 and 86.2796 and the “3D cell viability (MTS assay)” value ([2]; PXS-5505 30 (unit not given)) was 93.0804 and 86.6488. For the same molecule, the “3D cell viability (MTS assay)” value ([2]; PXS-5505 100 (unit not given)) was 93.525 and 85.922, the “3D cell viability (MTS assay)” value ([2]; PXS-5505 300 (unit not given)) was 102.9 and 101.619 and 82.2294 and the “effect on proliferation, 3D” value ([2]; up to 300 µM) was “nor did it show any effect on proliferation”. The viability ([3]; KPC CAFs embedded in polymerized collagen (3D), PXS-5505 3 (unit inferred)) was 97.2%, the viability ([3]; KPC CAFs embedded in polymerized collagen (3D), PXS-5505 30 (unit inferred)) was 87.5% and the viability ([3]; KPC CAFs embedded in polymerized collagen (3D), PXS-5505 100 (unit inferred)) was 99%. For the same molecule, the viability ([3]; KPC cancer cells (CCs) embedded in polymerized collagen (3D), KPC CC, PXS-5505 0.3 (unit inferred)) was 97.5%, the viability ([3]; KPC cancer cells (CCs) embedded in polymerized collagen (3D), KPC CC, PXS-5505 3 (unit inferred)) was 108% and the viability ([3]; KPC cancer cells (CCs) embedded in polymerized collagen (3D), KPC CC, PXS-5505 30 (unit inferred)) was 100%. The viability ([3]; KPC cancer cells (CCs) embedded in polymerized collagen (3D), KPC CC, PXS-5505 100 (unit inferred)) was 96.7%, the LOX specific activity ([4]; pre-incubation 0 min, log conc -4.52288) was 32.1036 and the LOX specific activity ([4]; pre-incubation 0 min, log conc -5) was 64.3382. For the same molecule, the LOX specific activity ([4]; pre-incubation 0 min, log conc -5.47756) was 84.6897, the LOX specific activity ([4]; pre-incubation 0 min, log conc -5.95468) was 91.8109 and the LOX specific activity ([4]; pre-incubation 0 min, log conc -6.4318) was 92.4662. For the same molecule, the LOX specific activity ([4]; pre-incubation 0 min, log conc -6.91009) was 98.7719, the LOX specific activity ([4]; pre-incubation 0 min, log conc -7.3851) was 96.7913 and the LOX specific activity ([4]; pre-incubation 0 min, log conc -7.86328) was 102.005. It also gave an LOX specific activity ([4]; pre-incubation 0 min, log conc -8.34008) of 102.107, an LOX specific activity ([4]; pre-incubation 0 min, log conc -8.81816) of 98.6554 and an LOX specific activity ([4]; pre-incubation 0 min, log conc -9.29414) of 106.228. For the same molecule, the LOX specific activity ([4]; pre-incubation 0 min, log conc -9.77126) was 108.063, the LOX specific activity ([4]; pre-incubation 15 min, log conc -4.52288) was 9.177 and the LOX specific activity ([4]; pre-incubation 15 min, log conc -5) was 32.3488. It also gave an LOX specific activity ([4]; pre-incubation 15 min, log conc -5.47756) of 65.4986, an LOX specific activity ([4]; pre-incubation 15 min, log conc -5.95468) of 81.8309 and an LOX specific activity ([4]; pre-incubation 15 min, log conc -6.4318) of 89.7677. For the same molecule, the LOX specific activity ([4]; pre-incubation 15 min, log conc -6.91009) was 93.4569, the LOX specific activity ([4]; pre-incubation 15 min, log conc -7.3851) was 96.3684 and the LOX specific activity ([4]; pre-incubation 15 min, log conc -7.86328) was 90.7581. For the same molecule, the LOX specific activity ([4]; pre-incubation 15 min, log conc -8.34008) was 96.0493, the LOX specific activity ([4]; pre-incubation 15 min, log conc -8.81816) was 95.7037 and the LOX specific activity ([4]; pre-incubation 15 min, log conc -9.29414) was 99.1403. It also gave an LOX specific activity ([4]; pre-incubation 15 min, log conc -9.77126) of 98.9675, an LOX specific activity ([4]; pre-incubation 30 min, log conc -4.52288) of 2.6085 and an LOX specific activity ([4]; pre-incubation 30 min, log conc -5) of 10.9871. For the same molecule, the LOX specific activity ([4]; pre-incubation 30 min, log conc -5.47756) was 44.0429, the LOX specific activity ([4]; pre-incubation 30 min, log conc -5.95468) was 69.7571 and the LOX specific activity ([4]; pre-incubation 30 min, log conc -6.4318) was 82.4602. For the same molecule, the LOX specific activity ([4]; pre-incubation 30 min, log conc -6.91009) was 92.2531, the LOX specific activity ([4]; pre-incubation 30 min, log conc -7.3851) was 91.8445 and the LOX specific activity ([4]; pre-incubation 30 min, log conc -7.86328) was 100.827. It also gave an LOX specific activity ([4]; pre-incubation 30 min, log conc -8.34008) of 94.7736, an LOX specific activity ([4]; pre-incubation 30 min, log conc -8.81816) of 95.6095 and an LOX specific activity ([4]; pre-incubation 30 min, log conc -9.29414) of 101.078. It also gave an LOX specific activity ([4]; pre-incubation 30 min, log conc -9.77126) of 104.925, an LOX specific activity ([4]; pre-incubation 60 min, log conc -4.52288) of -1.9 and an LOX specific activity ([4]; pre-incubation 60 min, log conc -5) of 1.453. It also gave an LOX specific activity ([4]; pre-incubation 60 min, log conc -5.47756) of 20.7125, an LOX specific activity ([4]; pre-incubation 60 min, log conc -5.95468) of 53.0465 and an LOX specific activity ([4]; pre-incubation 60 min, log conc -6.4318) of 78.5482. The LOX specific activity ([4]; pre-incubation 60 min, log conc -6.91009) was 90.7227, the LOX specific activity ([4]; pre-incubation 60 min, log conc -7.3851) was 95.8188 and the LOX specific activity ([4]; pre-incubation 60 min, log conc -7.86328) was 101.294. It also gave an LOX specific activity ([4]; pre-incubation 60 min, log conc -8.34008) of 102.525, an LOX specific activity ([4]; pre-incubation 60 min, log conc -8.81816) of 100.564 and an LOX specific activity ([4]; pre-incubation 60 min, log conc -9.29414) of 101.737. For the same molecule, the LOX specific activity ([4]; pre-incubation 60 min, log conc -9.77126) was 102.743, the LOX specific activity ([4]; pre-incubation 120 min, log conc -4.52288) was 2.378 and the LOX specific activity ([4]; pre-incubation 120 min, log conc -5) was 0.7896. It also gave an LOX specific activity ([4]; pre-incubation 120 min, log conc -5.47756) of 6.366, an LOX specific activity ([4]; pre-incubation 120 min, log conc -5.95468) of 21.6941 and an LOX specific activity ([4]; pre-incubation 120 min, log conc -6.4318) of 62.059. For the same molecule, the LOX specific activity ([4]; pre-incubation 120 min, log conc -6.91009) was 92.1986, the LOX specific activity ([4]; pre-incubation 120 min, log conc -7.3851) was 91.1259 and the LOX specific activity ([4]; pre-incubation 120 min, log conc -7.86328) was 98.8619. The LOX specific activity ([4]; pre-incubation 120 min, log conc -8.34008) was 100.244, the LOX specific activity ([4]; pre-incubation 120 min, log conc -8.81816) was 100.045 and the LOX specific activity ([4]; pre-incubation 120 min, log conc -9.29414) was 96.9572. The LOX specific activity ([4]; pre-incubation 120 min, log conc -9.77126) was 100.753, the LOX specific activity ([4]; pre-incubation 240 min, log conc -4.52288) was -3.18 and the LOX specific activity ([4]; pre-incubation 240 min, log conc -5) was 0.3645. The LOX specific activity ([4]; pre-incubation 240 min, log conc -5.47756) was 8.283, the LOX specific activity ([4]; pre-incubation 240 min, log conc -5.95468) was 6.894 and the LOX specific activity ([4]; pre-incubation 240 min, log conc -6.4318) was 35.306. The LOX specific activity ([4]; pre-incubation 240 min, log conc -6.91009) was 69.9646, the LOX specific activity ([4]; pre-incubation 240 min, log conc -7.3851) was 87.2279 and the LOX specific activity ([4]; pre-incubation 240 min, log conc -7.86328) was 94.5493. For the same molecule, the LOX specific activity ([4]; pre-incubation 240 min, log conc -8.34008) was 99.3255, the LOX specific activity ([4]; pre-incubation 240 min, log conc -8.81816) was 102.317 and the LOX specific activity ([4]; pre-incubation 240 min, log conc -9.29414) was 102.769. For the same molecule, the LOX specific activity ([4]; pre-incubation 240 min, log conc -9.77126) was 103.159 and the “time-dependent inhibition of LOX specific activity” value ([4]; pre-incubation time 0–240 min) was “increased potency with increased pre-incubation time”.
